Values quoted from earlier work in US10286065B2 (priority 2014, dated 2019).

## CCC(=O)O[C@]1(C(=O)SCF)[C@H](C)C[C@H]2[C@@H]3C[C@H](F)C4=CC(=O)C=C[C@]4(C)[C@@]3(F)[C@@H](O)C[C@@]21C [Fluticasone propionate]
Dimethyl sulfoxide and dimethylformamide
  solubility in dimethyl sulfoxide and dimethylformamide: freely soluble
Methanol and 95% ethanol
  solubility in methanol and 95% ethanol: slightly soluble
water
  solubility in water: practically insoluble
